Source: US10745382B2 (BRISTOL-MYERS SQUIBB COMPANY, priority 2015, dated 2020)
Like-named read-outs stand apart in the source and are kept apart here.

Molecular target: T1, PD-1/PD-L1 (Homo sapiens, UniProt Q9NZQ7)
T1 construct: made in house; host or cells: HEK293T
Experiment: PD-1/PD-L1 Homogenous Time-Resolved Fluorescence (HTRF) binding assay
Settings: PD-L1-His 10 nM, PD-1-Ig 20 nM, read-out: Range or IC50
In short: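 dPBS + 0.1% BSA + 0.05% Tween-20 buffer; Eu-cryptate anti-Ig 1 nM final, APC anti-His 20 nM final; HTRF read. Counter-assays: PD-1-Ig/PD-L2-His 20 & 5 nM, CD80-His/PD-L1-Ig 100 & 10 nM.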

T1 sequence (Q9NZQ7 with tags, fused parts or gaps): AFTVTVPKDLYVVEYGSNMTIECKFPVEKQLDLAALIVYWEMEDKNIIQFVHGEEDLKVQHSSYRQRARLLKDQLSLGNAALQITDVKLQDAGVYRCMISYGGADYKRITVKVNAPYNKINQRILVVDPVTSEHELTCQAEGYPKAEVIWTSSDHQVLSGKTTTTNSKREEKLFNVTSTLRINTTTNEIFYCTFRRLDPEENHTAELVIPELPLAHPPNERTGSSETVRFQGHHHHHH

Compound | IC50 (value given as range class) [nM] | IC50 (numeric IC50) [nM]
Cc1c(COc2cc(OCc3cncc(S(C)(=O)=O)c3)c(CNC(C)(CO)CO)cc2Cl)cccc1-c1cccc(OCCCN2CC[C@@H](O)C2)c1Cl [Example 1532, (R)-2-((5-chloro-4-((2′-chloro-3′-(3-(3-hydroxypyrrolidin-1-yl)propoxy)-2-methyl-[1,1′-biphenyl]-3-yl)methoxy)-2-((5-(methylsulfonyl)pyridin-3-yl)methoxy)benzyl)amino)-2-methylpropane-1,3-diol] | 0.21 to 10 | –
Cc1c(COc2cc(OCc3cncc(S(C)(=O)=O)c3)c(CNC(C)(CO)CO)cc2Cl)cccc1-c1cccc(OCCCN2CC[C@@H](O)C2)c1C [Example 1533, (R)-2-((5-chloro-4-((3′-(3-(3-hydroxypyrrolidin-1-yl)propoxy)-2,2′-dimethyl-[1,1′-biphenyl]-3-yl)methoxy)-2-((5-(methylsulfonyl)pyridin-3-yl)methoxy)benzyl)amino)-2-methylpropane-1,3-diol] | 0.21 to 10 | –
Cc1c(COc2cc(OCc3cncc(C#N)c3)c(CN3CCC[C@@H]3CO)cc2Cl)cccc1-c1cccc(OCCCN2CCC[C@@H]2CO)c1F [Example 1534, 5-((4-chloro-5-((2′-fluoro-3′-(3-((R)-2-(hydroxymethyl)pyrrolidin-1-yl)propoxy)-2-methyl-[1,1′-biphenyl]-3-yl)methoxy)-2-(((R)-2-(hydroxymethyl)pyrrolidin-1-yl)methyl)phenoxy)methyl)nicotinonitrile] | 0.21 to 10 | –
Cc1c(COc2cc(OCc3cncc(C#N)c3)c(CN3CC[C@@H](O)C3)cc2Cl)cccc1-c1cccc(OCCCN2CC[C@@H](O)C2)c1Cl [Example 2001, 5-((4-chloro-5-((2′-chloro-3′-(3-((R)-3-hydroxypyrrolidin-1-yl)propoxy)-2-methyl-[1,1′-biphenyl]-3-yl)methoxy)-2-(((R)-3-hydroxypyrrolidin-1-yl)methyl)phenoxy)methyl)nicotinonitrile] | 0.21 to 10 | –
Cc1c(COc2cc(OCc3cncc(C#N)c3)c(CO)cc2Cl)cccc1-c1cccc(OCCCN2CC[C@@H](O)C2)c1Cl [Example 2002, (R)-5-((4-chloro-5-((2′-chloro-3′-(3-(3-hydroxypyrrolidin-1-yl)propoxy)-2-methyl-[1,1′-biphenyl]-3-yl)methoxy)-2-(hydroxymethyl)phenoxy)methyl)nicotinonitrile] | 0.21 to 10 | –
Cc1c(COc2cc(OCc3cncc(C#N)c3)c(CNC[C@H](O)CO)cc2Cl)cccc1-c1cccc(OCCCNC[C@H](O)CO)c1Cl [Example 2003, 5-((4-chloro-5-((2′-chloro-3′-(3-(((S)-2,3-dihydroxypropyl)amino)propoxy)-2-methyl-[1,1′-biphenyl]-3-yl)methoxy)-2-((((S)-2,3-dihydroxypropyl)amino)methyl)phenoxy)methyl)nicotinonitrile] | 0.21 to 10 | –
Cc1c(COc2cc(OCc3cncc(C#N)c3)c(CN[C@@H](CO)C(=O)O)cc2Cl)cccc1-c1cccc(OCCCNC[C@H](O)CO)c1Cl [Example 2004, (S)-2-((5-chloro-4-((2′-chloro-3′-(3-(((S)-2,3-dihydroxypropyl)amino)propoxy)-2-methyl-[1,1′-biphenyl]-3-yl)methoxy)-2-((5-cyanopyridin-3-yl)methoxy)benzyl)amino)-3-hydroxypropanoic Acid] | 0.21 to 10 | –
Cc1c(COc2cc(OCc3cncc(C#N)c3)c(CO)cc2Cl)cccc1-c1cccc(OCCCNC[C@H](O)CO)c1Cl [Example 2005, (S)-5-((4-chloro-5-((2′-chloro-3′-(3-((2,3-dihydroxypropyl)amino)propoxy)-2-methyl-[1,1′-biphenyl]-3-yl)methoxy)-2-(hydroxymethyl)phenoxy)methyl)nicotinonitrile] | 0.21 to 10 | –
Cc1c(COc2cc(OCc3cncc(C#N)c3)c(CN[C@@](C)(CO)C(=O)O)cc2Cl)cccc1-c1cccc(OCCCNC[C@H](O)CO)c1Cl [Example 2006, (S)-2-((5-chloro-4-((2′-chloro-3′-(3-(((S)-2,3-dihydroxypropyl)amino)propoxy)-2-methyl-[1,1′-biphenyl]-3-yl)methoxy)-2-((5-cyanopyridin-3-yl)methoxy)benzyl)amino)-3-hydroxy-2-methylpropanoic Acid] | 0.21 to 10 | –
Cc1c(COc2cc(OCc3cncc(C#N)c3)c(CN3CCCC[C@H]3C(=O)O)cc2Cl)cccc1-c1cccc(OCCCNC[C@H](O)CO)c1Cl [Example 2007, (S)-1-(5-chloro-4-((2′-chloro-3′-(3-(((S)-2,3-dihydroxypropyl)amino)propoxy)-2-methyl-[1,1′-biphenyl]-3-yl)methoxy)-2-((5-cyanopyridin-3-yl)methoxy)benzyl)piperidine-2-carboxylic Acid] | – | 0.88
Cc1c(COc2cc(OCc3cncc(C#N)c3)c(CN[C@](C)(CO)C(=O)O)cc2Cl)cccc1-c1cccc(OCCCN2CCC[C@H](C(=O)O)C2)c1Cl [Example 2008, (S)-1-(3-((3′-((4-((((R)-2-carboxy-1-hydroxypropan-2-yl)amino)methyl)-2-chloro-5-((5-cyanopyridin-3-yl)methoxy)phenoxy)methyl)-2-chloro-2′-methyl-[1,1′-biphenyl]-3-yl)oxy)propyl)piperidine-3-carboxylic Acid] | 0.21 to 10 | –
Cc1c(COc2cc(OCc3cncc(C#N)c3)c(CO)cc2Cl)cccc1-c1cccc(OCCCN2CCC[C@H](C(=O)O)C2)c1Cl [Example 2009, (S)-1-(3-((2-chloro-3′-((2-chloro-5-((5-cyanopyridin-3-yl)methoxy)-4-(hydroxymethyl)phenoxy)methyl)-2′-methyl-[1,1′-biphenyl]-3-yl)oxy)propyl)piperidine-3-carboxylic Acid] | 10 to 100 | –
Cc1c(COc2cc(OCc3cncc(C#N)c3)c(CNCCc3ccncc3)cc2Cl)cccc1-c1cccc(OCCCNCCc2ccncc2)c1Cl [Example 2010, 5-((4-chloro-5-((2′-chloro-2-methyl-3′-(3-((2-(pyridin-4-yl)ethyl)amino)propoxy)-[1,1′-biphenyl]-3-yl)methoxy)-2-(((2-(pyridin-4-yl)ethyl)amino)methyl)phenoxy)methyl)nicotinonitrile] | 0.21 to 10 | –
Cc1c(COc2cc(OCc3cncc(C#N)c3)c(CN3CCN(CCO)CC3)cc2Cl)cccc1-c1cccc(OCCCN2CCN(CCO)CC2)c1Cl [Example 2011, 5-((4-chloro-5-((2′-chloro-3′-(3-(4-(2-hydroxyethyl)piperazin-1-yl)propoxy)-2-methyl-[1,1′-biphenyl]-3-yl)methoxy)-2-((4-(2-hydroxyethyl)piperazin-1-yl)methyl)phenoxy)methyl)nicotinonitrile] | 0.21 to 10 | –
Cc1c(COc2cc(OCc3cncc(C#N)c3)c(CN[C@](C)(CO)C(=O)O)cc2Cl)cccc1-c1cccc(OCCCN2CC(N(C)C)C2)c1Cl [Example 2013, (R)-2-((5-chloro-4-((2′-chloro-3′-(3-(3-(dimethylamino)azetidin-1-yl)propoxy)-2-methyl-[1,1′-biphenyl]-3-yl)methoxy)-2-((5-cyanopyridin-3-yl)methoxy)benzyl)amino)-3-hydroxy-2-methylpropanoic Acid] | 0.21 to 10 | –
Cc1c(COc2cc(O)c(CO)cc2Cl)cccc1-c1cccc(OCCCN2CC(N(C)C)C2)c1Cl [Example 2014, 4-chloro-5-((2′-chloro-3′-(3-(3-(dimethylamino)azetidin-1-yl)propoxy)-2-methyl-[1,1′-biphenyl]-3-yl)methoxy)-2-(hydroxymethyl)phenol] | 10 to 100 | –
Cc1c(COc2cc(OCc3cncc(C#N)c3)c(CO)cc2Cl)cccc1-c1cccc(OCCCN2CC(N(C)C)C2)c1Cl [Example 2015, 5-((4-chloro-5-((2′-chloro-3′-(3-(3-(dimethylamino)azetidin-1-yl)propoxy)-2-methyl-[1,1′-biphenyl]-3-yl)methoxy)-2-(hydroxymethyl)phenoxy)methyl)nicotinonitrile] | 0.21 to 10 | –
Cc1c(COc2cc(OCc3cncc(C#N)c3)c(CN[C@](C)(CO)C(=O)O)cc2Cl)cccc1-c1cccc(OCCCN2CCCCC2)c1Cl [Example 2016, (R)-2-((5-chloro-4-((2′-chloro-2-methyl-3′-(3-(piperidin-1-yl)propoxy)-[1,1′-biphenyl]-3-yl)methoxy)-2-((5-cyanopyridin-3-yl)methoxy)benzyl)amino)-3-hydroxy-2-methylpropanoic Acid] | 0.21 to 10 | –
Cc1c(COc2cc(O)c(CO)cc2Cl)cccc1-c1cccc(OCCCN2CCCCC2)c1Cl [Example 2017, 4-chloro-5-((2′-chloro-2-methyl-3′-(3-(piperidin-1-yl)propoxy)-[1,1′-biphenyl]-3-yl)methoxy)-2-(hydroxymethyl)phenol] | 10 to 100 | –
Cc1c(COc2cc(OCc3cncc(C#N)c3)c(CO)cc2Cl)cccc1-c1cccc(OCCCN2CCCCC2)c1Cl [Example 2018, 5-((4-chloro-5-((2′-chloro-2-methyl-3′-(3-(piperidin-1-yl)propoxy)-[1,1′-biphenyl]-3-yl)methoxy)-2-(hydroxymethyl)phenoxy)methyl)nicotinonitrile] | 0.21 to 10 | –
CC(=O)NC1CCN(CCCOc2cccc(-c3cccc(COc4cc(OCc5cncc(C#N)c5)c(CN[C@](C)(CO)C(=O)O)cc4Cl)c3C)c2Cl)C1 (stereo partly drawn) [Example 2019, (2R)-2-((4-((3′-(3-(3-acetamidopyrrolidin-1-yl)propoxy)-2′-chloro-2-methyl-[1,1′-biphenyl]-3-yl)methoxy)-5-chloro-2-((5-cyanopyridin-3-yl)methoxy)benzyl)amino)-3-hydroxy-2-methylpropanoic Acid] | 0.21 to 10 | –
CC(=O)NC1CCN(CCCOc2cccc(-c3cccc(COc4cc(O)c(CO)cc4Cl)c3C)c2Cl)C1 (stereo not shown) [Example 2020, N-(1-(3-((2-chloro-3′-((2-chloro-5-hydroxy-4-(hydroxymethyl)phenoxy)methyl)-2′-methyl-[1,1′-biphenyl]-3-yl)oxy)propyl)pyrrolidin-3-yl)acetamide] | – | 63
